ChEMBL document CHEMBL4507292 (2021)

Assays:
[1] = biological target: Wee1-like protein kinase (Homo sapiens) (UniProt P30291); conditions: Compound concentration 1000.0 nM
[2] = biological target: Protein kinase C eta type (Homo sapiens) (UniProt P24723); conditions: Compound concentration 1000.0 nM
[3] = biological target: Ribosomal protein S6 kinase alpha-5 (Homo sapiens) (UniProt O75582); conditions: Compound concentration 1000.0 nM
[4] = biological target: Serine/threonine-protein kinase WNK4 (Homo sapiens) (UniProt Q96J92); conditions: Compound concentration 1000.0 nM
[5] = biological target: Serine/threonine-protein kinase SIK1 (Homo sapiens) (UniProt P57059); conditions: Compound concentration 1000.0 nM
[6] = tested on: Serine/threonine-protein kinase B-raf (Homo sapiens), P15056 [V600E]; conditions: Compound concentration 1000.0 nM
[7] = biological target: Receptor-interacting serine/threonine-protein kinase 1 (Homo sapiens) (UniProt Q13546); conditions: Compound concentration 1000.0 nM
[8] = biological target: Myotonin-protein kinase (Homo sapiens) (UniProt Q09013); conditions: Compound concentration 1000.0 nM
Myotonin-protein kinase (Homo sapiens), sequence (Q09013 whole entry): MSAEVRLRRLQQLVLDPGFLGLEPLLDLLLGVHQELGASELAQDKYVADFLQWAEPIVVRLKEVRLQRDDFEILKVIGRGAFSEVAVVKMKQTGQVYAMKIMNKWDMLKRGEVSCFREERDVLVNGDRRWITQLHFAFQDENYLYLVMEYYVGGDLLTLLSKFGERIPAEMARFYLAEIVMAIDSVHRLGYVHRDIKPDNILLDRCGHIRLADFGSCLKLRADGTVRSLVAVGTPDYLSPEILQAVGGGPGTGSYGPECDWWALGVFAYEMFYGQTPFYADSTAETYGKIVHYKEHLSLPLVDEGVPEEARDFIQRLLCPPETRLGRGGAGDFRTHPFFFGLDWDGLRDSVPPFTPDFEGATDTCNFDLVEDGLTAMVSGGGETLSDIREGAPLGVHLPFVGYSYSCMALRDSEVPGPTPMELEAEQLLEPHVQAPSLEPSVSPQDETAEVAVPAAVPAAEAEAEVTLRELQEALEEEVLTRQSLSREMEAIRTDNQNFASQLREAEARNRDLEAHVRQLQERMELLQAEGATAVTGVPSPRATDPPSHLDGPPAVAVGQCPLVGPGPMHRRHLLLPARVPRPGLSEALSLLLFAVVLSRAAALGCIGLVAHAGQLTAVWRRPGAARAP

[9] = biological target: Serine/threonine-protein kinase Sgk2 (Homo sapiens) (UniProt Q9HBY8); conditions: Compound concentration 1000.0 nM
[10] = biological target: Serine/threonine-protein kinase PAK 6 (Homo sapiens) (UniProt Q9NQU5); conditions: Compound concentration 1000.0 nM
[11] = biological target: RAC-alpha serine/threonine-protein kinase (Homo sapiens) (UniProt P31749); conditions: Compound concentration 1000.0 nM
[12] = biological target: Serine/threonine-protein kinase Chk1 (Homo sapiens) (UniProt O14757); conditions: Compound concentration 1000.0 nM
[13] = biological target: Cyclin-dependent kinase 9 (Homo sapiens) (UniProt P50750); conditions: Compound concentration 1000.0 nM
[14] = biological target: Serine/threonine-protein kinase MRCK gamma (Homo sapiens) (UniProt Q6DT37); conditions: Compound concentration 1000.0 nM
[15] = biological target: Sodium-dependent noradrenaline transporter (Homo sapiens, UniProt P23975); conditions: Compound concentration 10.0 uM
Sodium-dependent noradrenaline transporter, sequence (P23975 whole entry): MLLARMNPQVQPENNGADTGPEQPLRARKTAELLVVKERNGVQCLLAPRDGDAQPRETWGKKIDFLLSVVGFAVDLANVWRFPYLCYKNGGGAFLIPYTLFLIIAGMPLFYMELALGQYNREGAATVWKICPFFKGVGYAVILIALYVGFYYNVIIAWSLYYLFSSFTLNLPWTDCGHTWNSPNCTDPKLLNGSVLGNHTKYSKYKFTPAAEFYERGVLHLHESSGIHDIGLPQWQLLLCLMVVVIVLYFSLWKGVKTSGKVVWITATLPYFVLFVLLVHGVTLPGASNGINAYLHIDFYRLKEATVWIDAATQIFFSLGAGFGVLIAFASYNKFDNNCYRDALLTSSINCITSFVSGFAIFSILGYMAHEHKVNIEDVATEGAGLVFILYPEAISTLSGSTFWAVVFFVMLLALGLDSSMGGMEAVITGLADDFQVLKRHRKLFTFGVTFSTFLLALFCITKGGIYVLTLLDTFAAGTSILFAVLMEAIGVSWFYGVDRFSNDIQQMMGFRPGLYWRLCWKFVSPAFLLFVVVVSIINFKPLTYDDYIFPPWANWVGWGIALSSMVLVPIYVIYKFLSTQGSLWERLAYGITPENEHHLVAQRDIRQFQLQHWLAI

[16] = biological target: Serine/threonine-protein kinase LATS2 (Homo sapiens) (UniProt Q9NRM7); conditions: Compound concentration 1000.0 nM
[17] = biological target: Serine/threonine-protein kinase 25 (Homo sapiens) (UniProt O00506); conditions: Compound concentration 1000.0 nM
[18] = biological target: Mitogen-activated protein kinase kinase kinase kinase 1 (Homo sapiens) (UniProt Q92918); conditions: Compound concentration 1000.0 nM
[19] = biological target: Tyrosine-protein kinase ITK/TSK (Homo sapiens) (UniProt Q08881); conditions: Compound concentration 1000.0 nM
[20] = biological target: Serine/threonine-protein kinase TBK1 (Homo sapiens) (UniProt Q9UHD2); conditions: Compound concentration 1000.0 nM
[21] = biological target: Megakaryocyte-associated tyrosine-protein kinase (Homo sapiens) (UniProt P42679); conditions: Compound concentration 1000.0 nM
[22] = biological target: Serine/threonine-protein kinase LATS1 (Homo sapiens) (UniProt O95835); conditions: Compound concentration 1000.0 nM
Serine/threonine-protein kinase LATS1 (Homo sapiens), sequence (O95835 whole entry): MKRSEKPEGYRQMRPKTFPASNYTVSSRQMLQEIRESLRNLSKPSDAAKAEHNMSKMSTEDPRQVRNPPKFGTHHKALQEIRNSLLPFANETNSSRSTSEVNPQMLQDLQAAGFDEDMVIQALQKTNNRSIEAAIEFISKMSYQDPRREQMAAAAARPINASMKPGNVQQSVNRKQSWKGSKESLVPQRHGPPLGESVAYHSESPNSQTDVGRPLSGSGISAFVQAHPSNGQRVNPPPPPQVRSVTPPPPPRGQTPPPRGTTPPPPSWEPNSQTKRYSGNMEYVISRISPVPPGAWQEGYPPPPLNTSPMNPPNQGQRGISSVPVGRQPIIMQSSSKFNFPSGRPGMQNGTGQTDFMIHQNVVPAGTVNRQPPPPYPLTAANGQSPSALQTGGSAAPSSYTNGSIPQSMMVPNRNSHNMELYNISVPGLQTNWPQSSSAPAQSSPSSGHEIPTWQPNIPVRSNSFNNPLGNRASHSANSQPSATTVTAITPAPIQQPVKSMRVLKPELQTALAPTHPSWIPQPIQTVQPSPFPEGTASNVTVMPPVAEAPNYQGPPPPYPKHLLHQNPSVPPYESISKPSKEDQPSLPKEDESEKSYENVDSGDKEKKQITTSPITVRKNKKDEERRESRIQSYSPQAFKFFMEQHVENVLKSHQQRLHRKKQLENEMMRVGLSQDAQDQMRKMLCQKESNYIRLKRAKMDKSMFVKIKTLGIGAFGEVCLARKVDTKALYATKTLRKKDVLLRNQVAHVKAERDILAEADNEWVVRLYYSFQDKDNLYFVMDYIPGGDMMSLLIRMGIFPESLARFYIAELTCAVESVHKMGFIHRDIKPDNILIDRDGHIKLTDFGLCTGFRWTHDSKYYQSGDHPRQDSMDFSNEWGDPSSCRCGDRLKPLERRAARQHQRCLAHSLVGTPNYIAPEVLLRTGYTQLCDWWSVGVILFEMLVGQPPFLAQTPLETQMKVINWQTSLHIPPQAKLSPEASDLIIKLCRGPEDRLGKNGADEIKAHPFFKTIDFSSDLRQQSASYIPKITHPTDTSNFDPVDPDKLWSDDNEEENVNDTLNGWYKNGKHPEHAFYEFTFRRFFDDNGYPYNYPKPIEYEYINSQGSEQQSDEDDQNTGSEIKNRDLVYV

[23] = biological target: Beta-3 adrenergic receptor (Homo sapiens, UniProt P13945); conditions: Compound concentration 10.0 uM
[24] = tested on: Phosphatidylinositol 4,5-bisphosphate 3-kinase catalytic subunit alpha isoform (Homo sapiens), P42336 [I800L]; conditions: Compound concentration 1000.0 nM
Phosphatidylinositol 4,5-bisphosphate 3-kinase catalytic subunit alpha isoform (Homo sapiens), P42336 [I800L], sequence (P42336 whole entry I800L, canonical isoform): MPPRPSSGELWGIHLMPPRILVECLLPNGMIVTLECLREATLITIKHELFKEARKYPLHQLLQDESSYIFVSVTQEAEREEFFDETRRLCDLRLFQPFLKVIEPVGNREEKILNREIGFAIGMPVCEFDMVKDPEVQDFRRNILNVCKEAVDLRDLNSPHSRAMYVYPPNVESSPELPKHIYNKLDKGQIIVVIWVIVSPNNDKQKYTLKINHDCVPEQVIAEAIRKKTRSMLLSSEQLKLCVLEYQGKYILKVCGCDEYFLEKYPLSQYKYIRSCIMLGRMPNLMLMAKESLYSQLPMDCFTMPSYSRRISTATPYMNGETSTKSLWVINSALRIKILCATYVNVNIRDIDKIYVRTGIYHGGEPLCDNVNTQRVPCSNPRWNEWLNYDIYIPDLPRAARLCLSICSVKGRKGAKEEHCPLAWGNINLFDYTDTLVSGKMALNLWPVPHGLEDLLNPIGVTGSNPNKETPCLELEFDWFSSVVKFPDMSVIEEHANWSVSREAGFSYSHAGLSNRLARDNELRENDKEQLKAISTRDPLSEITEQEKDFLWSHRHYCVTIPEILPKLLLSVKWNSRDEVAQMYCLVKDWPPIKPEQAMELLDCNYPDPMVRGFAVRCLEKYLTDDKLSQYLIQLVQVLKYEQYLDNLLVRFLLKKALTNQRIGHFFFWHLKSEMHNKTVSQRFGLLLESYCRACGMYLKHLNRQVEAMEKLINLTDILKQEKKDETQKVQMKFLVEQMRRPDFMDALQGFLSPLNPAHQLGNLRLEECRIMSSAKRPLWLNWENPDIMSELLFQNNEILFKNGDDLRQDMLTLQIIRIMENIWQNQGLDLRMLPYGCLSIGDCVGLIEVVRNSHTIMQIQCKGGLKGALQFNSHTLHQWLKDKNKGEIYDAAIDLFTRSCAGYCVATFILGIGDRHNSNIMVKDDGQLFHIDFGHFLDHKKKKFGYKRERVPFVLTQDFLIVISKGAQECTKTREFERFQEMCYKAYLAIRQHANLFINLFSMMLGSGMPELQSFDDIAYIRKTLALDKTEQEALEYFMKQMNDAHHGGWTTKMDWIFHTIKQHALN

[25] = biological target: Mitogen-activated protein kinase kinase kinase 15 (Homo sapiens) (UniProt Q6ZN16); conditions: Compound concentration 1000.0 nM
[26] = biological target: BDNF/NT-3 growth factors receptor (Homo sapiens) (UniProt Q16620); conditions: Compound concentration 1000.0 nM
[27] = biological target: Hepatocyte growth factor receptor (Homo sapiens) (UniProt P08581); conditions: Compound concentration 1000.0 nM
[28] = tested on: Mast/stem cell growth factor receptor Kit (Homo sapiens), P10721 [V559D,V654A]; conditions: Compound concentration 1000.0 nM
Mast/stem cell growth factor receptor Kit (Homo sapiens), P10721 [V559D,V654A], sequence (P10721 whole entry V559D/V654A): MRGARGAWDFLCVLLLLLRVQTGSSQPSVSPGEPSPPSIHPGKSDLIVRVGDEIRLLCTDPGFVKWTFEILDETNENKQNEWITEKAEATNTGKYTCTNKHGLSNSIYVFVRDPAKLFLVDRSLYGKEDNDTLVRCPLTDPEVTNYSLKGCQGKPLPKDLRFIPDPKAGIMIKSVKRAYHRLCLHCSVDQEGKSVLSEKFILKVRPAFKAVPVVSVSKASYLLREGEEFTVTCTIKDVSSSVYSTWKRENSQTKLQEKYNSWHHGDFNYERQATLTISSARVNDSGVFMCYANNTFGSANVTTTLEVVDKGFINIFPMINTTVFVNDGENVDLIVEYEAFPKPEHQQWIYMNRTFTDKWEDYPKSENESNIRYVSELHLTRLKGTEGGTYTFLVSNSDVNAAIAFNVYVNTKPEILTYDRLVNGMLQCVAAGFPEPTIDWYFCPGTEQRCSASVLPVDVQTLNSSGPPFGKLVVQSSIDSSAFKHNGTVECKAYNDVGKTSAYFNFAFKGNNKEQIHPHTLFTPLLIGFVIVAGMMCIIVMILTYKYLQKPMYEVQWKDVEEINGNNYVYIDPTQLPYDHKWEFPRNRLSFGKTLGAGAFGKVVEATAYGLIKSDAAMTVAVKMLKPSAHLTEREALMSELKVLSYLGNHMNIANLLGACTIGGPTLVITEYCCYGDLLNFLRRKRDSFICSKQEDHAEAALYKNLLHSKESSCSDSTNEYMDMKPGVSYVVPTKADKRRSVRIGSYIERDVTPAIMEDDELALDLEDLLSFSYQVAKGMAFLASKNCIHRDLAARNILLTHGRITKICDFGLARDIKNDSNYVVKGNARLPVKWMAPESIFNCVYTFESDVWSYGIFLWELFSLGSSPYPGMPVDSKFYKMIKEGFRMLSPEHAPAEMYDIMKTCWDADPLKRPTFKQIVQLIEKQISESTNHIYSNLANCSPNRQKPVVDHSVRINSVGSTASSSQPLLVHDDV

[29] = biological target: Myosin-IIIb (Homo sapiens) (UniProt Q8WXR4); conditions: Compound concentration 1000.0 nM
[30] = biological target: cAMP-dependent protein kinase catalytic subunit beta (Homo sapiens) (UniProt P22694); conditions: Compound concentration 1000.0 nM
[31] = biological target: Phosphatidylinositol 4,5-bisphosphate 3-kinase catalytic subunit gamma isoform (Homo sapiens) (UniProt P48736); conditions: Compound concentration 1000.0 nM
[32] = biological target: Macrophage-stimulating protein receptor (Homo sapiens) (UniProt Q04912); conditions: Compound concentration 1000.0 nM
[33] = biological target: Cyclin-dependent kinase-like 5 (Homo sapiens) (UniProt O76039); conditions: Compound concentration 1000.0 nM
[34] = biological target: Calcium/calmodulin-dependent protein kinase type IV (Homo sapiens) (UniProt Q16566); conditions: Compound concentration 1000.0 nM
[35] = tested on: Proto-oncogene tyrosine-protein kinase receptor Ret (Homo sapiens), P07949 [V804L]; conditions: Compound concentration 1000.0 nM
[36] = biological target: Serine/threonine-protein kinase PknB (Mycobacterium tuberculosis) (UniProt P9WI81); conditions: Compound concentration 1000.0 nM
[37] = biological target: Wee1-like protein kinase 2 (Homo sapiens) (UniProt P0C1S8); conditions: Compound concentration 1000.0 nM
Wee1-like protein kinase 2 (Homo sapiens), sequence (P0C1S8 whole entry, looked up): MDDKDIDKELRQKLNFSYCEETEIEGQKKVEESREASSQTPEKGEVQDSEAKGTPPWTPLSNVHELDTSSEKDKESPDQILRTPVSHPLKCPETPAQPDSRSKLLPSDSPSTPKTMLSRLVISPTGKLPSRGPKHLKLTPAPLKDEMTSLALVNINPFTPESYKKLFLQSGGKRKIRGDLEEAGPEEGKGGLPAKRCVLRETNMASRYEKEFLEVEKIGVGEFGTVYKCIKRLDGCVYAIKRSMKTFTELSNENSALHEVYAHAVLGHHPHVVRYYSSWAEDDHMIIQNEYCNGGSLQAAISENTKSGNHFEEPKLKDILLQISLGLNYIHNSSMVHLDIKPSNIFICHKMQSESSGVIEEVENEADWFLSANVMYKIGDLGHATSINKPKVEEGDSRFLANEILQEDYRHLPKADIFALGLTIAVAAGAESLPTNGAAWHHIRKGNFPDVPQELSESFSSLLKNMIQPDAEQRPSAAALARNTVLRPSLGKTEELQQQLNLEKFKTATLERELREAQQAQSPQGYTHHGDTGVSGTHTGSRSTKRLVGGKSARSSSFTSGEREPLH

[38] = biological target: Serine/threonine-protein kinase ULK2 (Homo sapiens) (UniProt Q8IYT8); conditions: Compound concentration 1000.0 nM
[39] = biological target: Beta-1 adrenergic receptor (Homo sapiens) (UniProt P08588); conditions: Compound concentration 10.0 uM
[40] = biological target: Mitotic checkpoint serine/threonine-protein kinase BUB1 (Homo sapiens) (UniProt O43683); conditions: Compound concentration 1000.0 nM
[41] = biological target: NUAK family SNF1-like kinase 2 (Homo sapiens) (UniProt Q9H093); conditions: Compound concentration 1000.0 nM
[42] = biological target: Leucine-rich repeat serine/threonine-protein kinase 2 (Homo sapiens) (UniProt Q5S007); conditions: Compound concentration 1000.0 nM
[43] = tested on: Tyrosine-protein kinase ABL1 (Homo sapiens), P00519 [H396P]; conditions: Compound concentration 1000.0 nM
[44] = tested on: Phosphatidylinositol 4,5-bisphosphate 3-kinase catalytic subunit alpha isoform (Homo sapiens), P42336 [E545A]; conditions: Compound concentration 1000.0 nM
Phosphatidylinositol 4,5-bisphosphate 3-kinase catalytic subunit alpha isoform (Homo sapiens), P42336 [E545A], sequence (P42336 whole entry E545A, canonical isoform): as the sequence (P42336 whole entry I800L, canonical isoform) above, with E545A, L800I counted along it

[45] = biological target: Serine/threonine-protein kinase PLK4 (Homo sapiens) (UniProt O00444); conditions: Compound concentration 1000.0 nM

O=C(O)c1cc(-c2ccc(C3CCNCC3)cc2)c2ccc(-c3ccc(C(F)(F)F)cc3)cc2c1 [PPTN]
residual activity [1]: 98%
residual activity [2]: 100%
residual activity [3]: 100%
residual activity [4]: 100%
residual activity [5]: 100%
residual activity [6]: 100%
residual activity [7]: 100%
residual activity [8]: 100%
residual activity [9]: 100%
residual activity [10]: 100%
residual activity [11]: 99%
residual activity [12]: 100%
residual activity [13]: 100%
residual activity [14]: 100%
inhibition [15]: 23.6%
residual activity [16]: 100%
residual activity [17]: 100%
residual activity [18]: 96%
residual activity [19]: 100%
residual activity [20]: 80%
residual activity [21]: 100%
residual activity [22]: 88%
inhibition [23]: 65.2%
residual activity [24]: 93%
residual activity [25]: 99%
residual activity [26]: 100%
residual activity [27]: 100%
residual activity [28]: 100%
residual activity [29]: 69%
residual activity [30]: 100%
residual activity [31]: 92%
residual activity [32]: 100%
residual activity [33]: 100%
residual activity [34]: 100%
residual activity [35]: 88%
residual activity [36]: 100%
residual activity [37]: 100%
residual activity [38]: 100%
inhibition [39]: 24.7%
residual activity [40]: 100%
residual activity [41]: 100%
residual activity [42]: 100%
residual activity [43]: 86%
residual activity [44]: 87%
residual activity [45]: 80%

Cc1c(C(=O)O)cc(-c2ccc(C3CCNCC3)cc2)c2ccc(-c3ccc(C(F)(F)F)cc3)cc12 [PPTN-NC]
residual activity [1]: 80%
residual activity [2]: 100%
residual activity [3]: 100%
residual activity [4]: 100%
residual activity [5]: 94%
residual activity [6]: 100%
residual activity [7]: 100%
residual activity [8]: 86%
residual activity [9]: 100%
residual activity [10]: 100%
residual activity [11]: 100%
residual activity [12]: 100%
residual activity [13]: 100%
residual activity [14]: 100%
inhibition [15]: 11.2%
residual activity [16]: 100%
residual activity [17]: 100%
residual activity [18]: 90%
residual activity [19]: 100%
residual activity [20]: 73%
residual activity [21]: 100%
residual activity [22]: 86%
inhibition [23]: 57.5%
residual activity [24]: 100%
residual activity [25]: 100%
residual activity [26]: 100%
residual activity [27]: 100%
residual activity [28]: 100%
residual activity [29]: 75%
residual activity [30]: 84%
residual activity [31]: 100%
residual activity [32]: 100%
residual activity [33]: 100%
residual activity [34]: 100%
residual activity [35]: 100%
residual activity [36]: 100%
residual activity [37]: 100%
residual activity [38]: 100%
inhibition [39]: 29.2%
residual activity [40]: 100%
residual activity [41]: 100%
residual activity [42]: 100%
residual activity [43]: 99%
residual activity [44]: 100%
residual activity [45]: 96%
